Laboratory results taken from US20130096077A1, “Nematicidal Mixtures for Use in Sugar Cane” (priority 2010, published 2013).

Legend:
Assay type in all cases: in vivo
[1] = test system: sugar cane (variety SP80-1842); assay: Yield increase of sugar cane; settings: fipronil 200, abamectin 126, mixture 200 + 126 g a.i./ha; for Yield: in furrow at planting, untreated 102.81; for % increase of yield: vs untreated
[2] = test system: sugar cane; assay: Plant health activity: tillering of sugar cane; settings: fipronil 200, abamectin 90, mixture 200 + 90 g a.i./ha; for No. of tillers 180 days after planting: average per 1.0 linear meter, in furrow at planting, blank 19.75; for % of increase: tillers 180 days after planting vs blank
Method: (§1) Fipronil was used in the commercially available formulation Regent® 800 WG, containing Fipronil in a concentration of 800 g/kg. Abamectin was used in the commercially available EC formulation Vertimec® 18 CE, containing Abamectin in a concentration of 18 g/I.
(§2) Tank mixes of the commercial formulations of fipronil and abamectin diluted with water were prepared in a ratio such that the application rates identified in the tables below were achieved when 100 liter of tank mix formulation were applied to sugar cane in furrow.
(§3) The tank mix formulation was applied in furrow spraying over the sugar cane stems (cuttings/segments, 1 to 3 nodes segments) at the planting time.
(§4) The synergistic effect was determined by Limpel's formula. Synergism was evident if the observed effect for the mixture is greater than the expected calculated effect:
(§5) E=Expected activity of the mixture X=activity of compound X Y=activity of compound Y
The tank mix formulation of the mixture of fipronil and abamectin was prepared as described above for testing of nematicidal activity. The tank mix formulation was applied to sugar cane as described above for testing of nematicidal activity.
Tillering was evaluated before the application of the tank mix (“blank” in Table 2) and 180 days after planting/application the tank mix formulation. Each replication (plot) was evaluated at 3 different randomized points, each point consisting of 1.0 linear meter of the central rows of the plot. Evaluation was done for 4 replications (plots).

[3] = test system: Helicotylenchus species; assay: Nematicidal activity, sugar cane field, in furrow tank mix application; settings: fipronil 200, abamectin 90, mixture 200 + 90 g a.i./ha; for Nematode activity in the soil 90 days after planting: 1000 ml soil incl. roots, in furrow at planting, blank 317; for Efficacy/mortality: 90 days after planting, in furrow
Method: as §1, §2, §3, §4, §5
(§6) Treatments were done mid of June 2009 in Brazil in sugar cane fields which had not been pretreated with nematicides, that is, in fields showing an average nematode population.
(§7) Treatments were done only at the time of planting, that is, no further in furrow treatment was conducted. Each treatment experiment was replicated 6 times.
(§8) Nematicidal activity for Helicotylenchus and Paratrichodorus species was evaluated before the spraying for different portions of 1000 ml of soils collected at different sites of the field (“blank” in Table 1).
(§9) 90 days after spraying the tank mix formulation, different portions of 1000 ml of soil (including roots) were collected at different sites of the field, and the soil and the root knots were evaluated for nematicidal activity of Helicotylenchus and Paratrichodorus species and efficacy/mortality, respectively.
(§10) Synergism was evident if the % observed mortality for the mixture was greater than the % expected mortality.

[4] = test system: Paratrichodorus species; assay: as above; settings: fipronil 200, abamectin 90, mixture 200 + 90 g a.i./ha; for Nematode activity in the soil 90 days after planting: 1000 ml soil incl. roots, in furrow at planting, blank 133; for Efficacy/mortality: 90 days after planting, in furrow
Method: as §1, §2, §3, §4, §5, §6, §7, §8, §9, §10

| Molecule | Yield [1] [tons/ha] | % increase of yield [1] [%] | No. of tillers 180 days after planting [2] | % of increase [2] [%] | Nematode activity in the soil 90 days after planting [3] | Efficacy/mortality [3] [%] | Nematode activity in the soil 90 days after planting [4] | Efficacy/mortality [4] [%] |
| --- | --- | --- | --- | --- | --- | --- | --- | --- |
| Abamectin | 106.33 | 3.4 | 21.5 | 8.9 | 117 | 63 | 133 | 0 |
| N#Cc1nn(-c2c(Cl)cc(C(F)(F)F)cc2Cl)c(N)c1[S+]([O-])C(F)(F)F (stereo not shown) [Fipronil] | 106.31 | 3.4 | 20.25 | 2.5 | 367 | 0 | 100 | 25 |
